In article PMC6386482, “ASB20123: A novel C-type natriuretic peptide derivative for treatment of growth failure and dwarfism” (PLoS ONE, 2019):
One block for each compound: values may come before it. Ends that are not written are not given here. Peptide text beside a SMILES is read from it.

Experiments:
[1] = PK of CNP immunoreactivity after single intravenous administration in rats; format: in vivo, rat
[2] = PK of CNP immunoreactivity after single subcutaneous administration in rats; format: in vivo, rat
[3] = Plasma CNP immunoreactivity after sc bolus in vehicles containing ECM in rats
Description: We prepared CNP(1–22) and ASB20123 dissolved in vehicles containing ECM and delivered them to rats as sc bolus injections at 0.58 mg/kg for evaluation of their in vivo effects (S2 Fig).

[4] = cited from earlier work
Source text: C-type natriuretic peptide (CNP) is a member of the natriuretic peptide (NP) family that also includes atrial natriuretic peptide (ANP) and brain natriuretic peptide (BNP). […] However, CNP is expressed in various tissues, such as the central nervous system, reproductive tract, bone, and endothelium of blood ...

[5] = mouse, in vivo
Description: Three-week-old juvenile female ICR mice (n = 5 or 10/group) received ASB20123 sc bolus injections once daily for 8 weeks. Seven-week-old male SD rats (n = 5/group) received ASB20123 as multiple sc bolus injections or a continuous sc infusion using an osmotic mini-pump (ALZET osmotic pump, Durect Corporation, USA) for 1 or 12 weeks. Growth rate of each animal was monitored throughout the treatment and washout periods. Body weight, body (naso-anal) length, and tail length were measured weekly, and femoral and tibial lengths were measured with digital calipers on the final day. Osteocalcin concentration in mouse serum was measured as a marker of bone formation using commercially available ELISA kits (Mouse Osteocalcin EIA kit, Biomedical Technologies Inc., USA). Anti-ASB20123 antibody in mouse serum was measured using commercially available ELISA kits (Protein detector ELISA Kit, Kirkegaard & Perry Laboratories, Inc., USA) and ASB20123. The blood samples were collected from the posterior vena cava at the end of the dosing period and centrifuged to obtain serum samples. CNP immunoreactivity in rat plasma was determined by RIA as mentioned in the method of PK studies. The blood samples were collected from cervical vein at 15 min after sc bolus dosing or before necropsy for animals given a continuous sc infusion.

[6] = test system: Crouzon syndrome mouse model; settings: cited from earlier work
Source text: (§1) In the previous study, we designed and evaluated some CNP/ghrelin chimeric peptides as novel CNP derivatives. […] In the current study, we prepared another novel CNP/ghrelin chimeric peptide ASB20123 and evaluated its pharmacological activities. ASB20123 is comp ...

Fgfr3^ach mice = settings: cited from earlier work
Source text: as §1

female ICR mice = experiment: Skeletal growth of mice given CNP(1–22) or human CNP(1–53) sc for 3 weeks; format: in vivo, mouse; settings: subcutaneous administration for 3 weeks (S3 Fig)
Source text: Interstitial diffusion of macromolecules, such as HA and glycosaminoglycan, is affected by their physiochemical characteristics, including their size, charge, and hydrophilicity, as well as their interactions with the endogenous components present in the interstitium. Interaction between ASB20123 and the endogenous molecules might play a role in the diffusion and absorption processes. […] The C-terminal part of ASB20123 might interact with ECM components, such as HA and glycosaminoglycan, resulting in a delay of its absorption from the sc tissue to the circulation and improvement of its stability.
Supplementary file pone.0212680.s003.tif: S3 Fig Body weight and body length of female ICR mice subcutaneously administered CNP(1–22) and human CNP(1–53) for 3 weeks. (TIF) Click here for additional data file.

[7] = test system: neutral endopeptidase (NEP); settings: cited from earlier work
[8] = anesthetized male SD rats, single iv 20 nmol/kg, plasma CNP immunoreactivity by RIA, mean of 3 rats
[9] = anesthetized male SD rats, single sc 50 nmol/kg, plasma CNP immunoreactivity by RIA, mean of 3 rats

Compound: CC[C@H](C)[C@@H]1NC(=O)[C@H](CCCNC(=N)N)NC(=O)[C@H](CC(=O)O)NC(=O)[C@H](CC(C)C)NC(=O)[C@H](CCCCN)NC(=O)[C@H](CC(C)C)NC(=O)CNC(=O)[C@H](Cc2ccccc2)NC(=O)[C@@H](NC(=O)CNC(=O)[C@H](CCCCN)NC(=O)[C@H](CO)NC(=O)[C@H](CC(C)C)NC(=O)CN)CSSC[C@@H](C(=O)O)NC(=O)CNC(=O)[C@H](CC(C)C)NC(=O)CNC(=O)[C@H](CO)NC(=O)[C@H](CCSC)NC(=O)[C@H](CO)NC(=O)CNC1=O [CNP(1–22), C-type natriuretic peptide]
AUC0→∞ [1, 8]: 320 pmol・min/mL | CLtot [1, 8]: 63.9 mL/min/kg | MRT0→∞ [1, 8]: 1.02 min | T1/2 [1, 8]: 1.42 min | Vdss [1, 8]: 0.0642 L/kg | BA ([2]; anesthetized male SD rats, single sc 50 nmol/kg, bioavailability, mean of 3 rats): 19% | AUC0→∞ [2, 9]: 152 pmol・min/mL | Cmax [2, 9]: 9.02 nM | MRT0→∞ [2, 9]: 13.9 min | T1/2 [2, 9]: 10.0 min | Tmax [2, 9]: 5.0 min | PK profile, effect of vehicle components ([3]; rats, sc bolus 0.58 mg/kg in vehicles containing ECM): not affected by its vehicle components | Clearance of exogenous peptide from the circulation [4]: rapidly cleared from the circulation

T1/2 ([1]; rat, in vivo, iv): 31.3 min | Vdss ([1]; rat, in vivo, iv): 0.429 L/kg | Vdss relative to that of CNP(1–22) ([1]; rat, in vivo, iv): 6.7 fold | T1/2 ([2]; rat, in vivo, sc): 32.1 min | Tmax ([2]; rat, in vivo, sc): 20.0 min | Anti-ASB20123 antibody in serum [5]: not detected | Time to reach the maximum plasma CNP concentration (Cmax) ([3]; rat, in vivo, sc, 0.58 mg/kg): delayed
Compound: CC[C@H](C)[C@@H]1NC(=O)[C@H](CCCNC(=N)N)NC(=O)[C@H](CC(=O)O)NC(=O)[C@H](CC(C)C)NC(=O)[C@H](CCCCN)NC(=O)[C@H](CC(C)C)NC(=O)CNC(=O)[C@H](Cc2ccccc2)NC(=O)[C@@H](NC(=O)CNC(=O)[C@H](CCCCN)NC(=O)[C@H](CO)NC(=O)[C@H](CC(C)C)NC(=O)CN)CSSC[C@@H](C(=O)N[C@H](C(=O)N[C@@H](CCC(N)=O)C(=O)N[C@@H](CCC(N)=O)C(=O)N[C@@H](CCCNC(=N)N)C(=O)N[C@@H](CCCCN)C(=O)N[C@@H](CC(=O)O)C(=O)N[C@@H](CO)C(=O)N[C@@H](CCCCN)C(=O)N[C@@H](CCCCN)C(=O)N2CCC[C@H]2C(=O)N2CCC[C@H]2C(=O)N[C@@H](C)C(=O)N[C@@H](CCCCN)C(=O)N[C@@H](CC(C)C)C(=O)N[C@@H](CCC(N)=O)C(=O)N2CCC[C@H]2C(=O)N[C@@H](CCCNC(=N)N)C(=O)O)C(C)C)NC(=O)CNC(=O)[C@H](CC(C)C)NC(=O)CNC(=O)[C@H](CO)NC(=O)[C@H](CCSC)NC(=O)[C@H](CO)NC(=O)CNC1=O [ASB20123] (HELM PEPTIDE1{G.L.S.K.G.C.F.G.L.K.L.D.R.I.G.S.M.S.G.L.G.C.V.Q.Q.R.K.D.S.K.K.P.P.A.K.L.Q.P.R}$PEPTIDE1,PEPTIDE1,6:R3-22:R3$$$V2.0)
AUC ([3]; rat, in vivo, sc, 0.58 mg/kg): higher than that when ASB20123 was dissolved in saline

Compound: BMN-111
Body length [6]: increased the body length | Body length (Fgfr3^ach mice): increased the body length

Compound: CNP(1–53): 53-residue peptide generated from pro-CNP (DLRVDTKSRAAWARLLQEHPNARKYKGANKKGLSKGCFGLKLDRIGSMSGLGC; ends and bridges not checked; cysteine pairing not given here; UniProt P23582 74-126, looked up)
Skeletal growth compared to CNP(1–22) (female ICR mice): more potently than that induced by CNP(1–22) administration | Stability against neutral endopeptidase (NEP) [7]: resistant to proteolytic inactivation
